# Data: US10314811B2, “Compositions and methods for selectively inhibiting intestinal carboxylesterase 2 enzyme activity” (The Methodist Hospital, priority 2015, dated 2019)
# pIC50: −log10 of the molar value. Like-named read-outs stand apart in the source and are kept apart here.
# Tests used:
# [1] = system: CT 26 tumor bearing Balb/cJ mice; experiment: In vivo testing of anti-diarrheal activity with CPT-11 in tumor bearing mice (Example 3); settings: for anti-tumor efficacy, as evaluated by tumor growth, versus CPT-11 only group / losses in body weight induced by CPT-11 treatment / survival rates as compared to CPT-11 alone: 40 mg/kg orally with CPT-11 50 mg/kg i.p.; for anti-tumor efficacy, as evaluated by tumor growth, versus CPT-11 only group: FIG. 1A; for losses in body weight induced by CPT-11 treatment: FIG. 1B at 14-16 days of treatment; for survival rates as compared to CPT-11 alone: FIG. 1C; for day on which diarrhea occurred: CPT-11 50 mg/kg i.p., CES2 inhibitor (if any) 40 mg/kg orally; for Percentage of mice having diarrhea: CPT-11 50 mg/kg i.p. day 1-10, CES2 inhibitor (if any) 40 mg/kg orally day 0-11
# Description: CPT-11 was purchased from Selleck Chemicals. To obtain an injectable formulation, CPT-11 (20 mg/mL) was dissolved in a solution containing D sorbitol (45 mg/mL) and D lactic acid (0.9 mg/mL) in ddH2O, and heated to ˜70° C. to 90° C. for 5 to 10 min See Trifan et al. 2002, Cancer Res., 62(20):5778 5784. The pH of the solution was adjusted to 3.5 prior to sterile filtration. The solution was stored protected from light until just prior to administration.
# Each of these compounds was dissolved separately in 100% DMSO and then diluted into a 0.5% carboxymethylcellulose solution. The final concentration of DMSO was less than 1%.
# (§1) Healthy 6-8 week old female Balb/cJ mice were obtained from Jackson Laboratories (Bar Harbor, Me. USA). CT 26 tumor cells, derived from a murine Balb/c colon adenocarcinoma, were used to form tumors by subcutaneous injection of tumor cells into the posterior mid-dorsum of the mice. When tumors reached ˜500 mm^3 (˜10 days after implantation, defined as day 1), treatment was initiated. The mice were divided into five groups of 3-4 animals each and treated as follows:
# (1) Vehicle group, mice received an equivalent volume of CPT-11 vehicle i.p. from day 1 to day 10, and an equivalent volume of compound vehicle orally from day 0 to day 11;
# (2) CPT-11 only group, mice received CPT-11 (50 mg/kg) i.p. from day 1 to day 10, and an equivalent volume of compound vehicle orally from day 0 to day 11;
# CPT-11 and the CES2 inhibitors were each administrated once per day during the experiment.
# The CES2 inhibitor treatment groups were compared to the CPT-11 only group and to the vehicle control group. Four major parameters were examined to quantify the effect of CES2 inhibitors, namely, body weight change, presence of diarrhea, survival time, and average tumor size.
# [2] = biological target: T1, human liver CES1 (Homo sapiens, UniProt P23141); experiment: CES1 enzyme assay (4-nitrophenyl acetate hydrolysis); assay type: biochemical; settings: for inhibition of CES1: concentrations as high as 300 μM
# T1 construct: purchased Sigma Aldrich E0162
# T1 sequence (P23141 18-567): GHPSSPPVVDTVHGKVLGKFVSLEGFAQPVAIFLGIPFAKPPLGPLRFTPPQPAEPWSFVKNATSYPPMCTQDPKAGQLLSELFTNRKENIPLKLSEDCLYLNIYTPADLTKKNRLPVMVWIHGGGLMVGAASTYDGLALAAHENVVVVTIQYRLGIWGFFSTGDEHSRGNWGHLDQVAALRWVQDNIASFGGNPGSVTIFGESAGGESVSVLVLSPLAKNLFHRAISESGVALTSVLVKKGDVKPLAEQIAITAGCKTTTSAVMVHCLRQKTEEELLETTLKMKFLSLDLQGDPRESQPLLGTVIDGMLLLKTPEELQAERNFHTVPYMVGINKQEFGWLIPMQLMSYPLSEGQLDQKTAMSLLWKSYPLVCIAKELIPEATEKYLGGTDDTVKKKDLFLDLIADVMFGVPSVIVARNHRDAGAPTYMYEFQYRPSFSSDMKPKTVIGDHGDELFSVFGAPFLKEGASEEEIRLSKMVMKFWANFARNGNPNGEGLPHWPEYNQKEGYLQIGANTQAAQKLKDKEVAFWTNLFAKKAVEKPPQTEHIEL
# Description: CES2 and CES1 enzyme assays were used for primary screening and IC50 determination of potential inhibitors. The assays are well established and widely used in compound discovery and lead optimization for CES inhibitors. See, e.g., Wadkins et al. 2004, Mol. Pharmacol. 65(6):1336 1343; Wadkins et al. 2005, J. Med. Chem. 48(8):2906 2915; Hicks et al. 2009, J. Med. Chem. 52(12):3742 3752; Hyatt et al. 2007, J. Med. Chem. 50(8):1876 1885; Hicks et al. 2007, Bioorg. Med. Chem. 15(11):3801 3817; Hyatt et al. 2007, J. Med. Chem., 50(23):5727 5734; Wadkins et al. 2007, Mol. Pharmacol. 71(3):713 723; and Young et al. 2010, J. Med. Chem., 53(24):8709 8715. CES converts esters into the corresponding alcohol and carboxylic acid. The esterase substrate, 4 nitrophenyl acetate (4 NPA), was used to detect enzyme activity. The recombinant purified intestinal CES2 and human liver CES1 enzymes and 4 NPA were purchased from Sigma Aldrich (product ID E0412, E0162, and N8130, respectively). […] The assays were conducted in a total volume of 300 μL in 96 well microtiter plates. Reaction mixtures consisted of the following: 100 μL 50 mM HEPES with 10 units of enzyme, 10 μL compound solution (various concentrations), 2 μL 300 mM 4 NPA and 188 μL 50 mM HEPES, pH 7.4. The test compound and 4 NPA solution were added to the wells first and then the reaction was initiated by the addition of enzyme solution. After incubation for 15 min. at 25° C., absorbance at 405 nm was measured using a microplate reader.
# [3] = biological target: T2, recombinant purified intestinal CES2 (Homo sapiens, UniProt O00748); experiment: CES2 enzyme assay (4-nitrophenyl acetate hydrolysis); assay type: biochemical
# T2 construct: purchased Sigma Aldrich E0412
# T2 sequence (O00748 27-559): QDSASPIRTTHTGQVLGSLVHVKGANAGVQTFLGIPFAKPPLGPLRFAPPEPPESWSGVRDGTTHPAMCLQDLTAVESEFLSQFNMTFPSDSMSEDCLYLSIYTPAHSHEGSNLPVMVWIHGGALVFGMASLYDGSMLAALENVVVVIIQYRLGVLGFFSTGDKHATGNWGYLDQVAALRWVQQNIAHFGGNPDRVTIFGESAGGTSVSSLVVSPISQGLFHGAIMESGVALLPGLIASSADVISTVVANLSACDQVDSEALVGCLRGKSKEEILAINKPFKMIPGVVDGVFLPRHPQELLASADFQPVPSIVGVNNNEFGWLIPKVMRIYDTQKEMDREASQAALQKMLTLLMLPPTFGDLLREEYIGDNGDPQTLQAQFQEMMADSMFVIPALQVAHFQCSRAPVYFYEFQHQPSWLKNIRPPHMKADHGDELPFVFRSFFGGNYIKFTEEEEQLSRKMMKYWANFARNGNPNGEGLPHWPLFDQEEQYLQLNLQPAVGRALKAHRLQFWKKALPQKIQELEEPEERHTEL
# Description: CES2 and CES1 enzyme assays were used for primary screening and IC50 determination of potential inhibitors. […] The esterase substrate, 4 nitrophenyl acetate (4 NPA), was used to detect enzyme activity. The recombinant purified intestinal CES2 and human liver CES1 enzymes and 4 NPA were purchased from Sigma Aldrich (product ID E0412, E0162, and N8130, respectively). […] The assays were conducted in a total volume of 300 μL in 96 well microtiter plates. Reaction mixtures consisted of the following: 100 μL 50 mM HEPES with 10 units of enzyme, 10 μL compound solution (various concentrations), 2 μL 300 mM 4 NPA and 188 μL 50 mM HEPES, pH 7.4. The test compound and 4 NPA solution were added to the wells first and then the reaction was initiated by the addition of enzyme solution. After incubation for 15 min. at 25° C., absorbance at 405 nm was measured using a microplate reader.
# [4] = system: CT 26 tumor bearing Balb/cJ mice; experiment: In vivo efficacy of CPT-11 plus hesperetin at different doses (Example 4); settings: for Percentage of mice having diarrhea: CPT-11 alone
# Description: as §1
# [5] = 4 NPA substrate, 15 min at 25° C., pH 7.4, read-out: IC50 CES1 Assay
# [6] = both hesperetin doses (20 mg/kg and 100 mg/kg) with CPT-11
structure (smiles),measurement,setting,value
"O=C(/C=C/c1ccccc1)c1ccc(O)cc1O [2′,4′ dihydroxychalcone, 2′,4′-dihydroxychalcone]","anti-tumor efficacy, as evaluated by tumor growth, versus CPT-11 only group",[1],No significant changes
same,losses in body weight induced by CPT-11 treatment,[1],reversed
same,survival rates as compared to CPT-11 alone,[1],improved
same,day on which diarrhea occurred,[1],13 days
same,Percentage of mice having diarrhea,[1]; day 12 after treatment,no mice
same,pIC50,[2]; [5],< 3.52
same,inhibition of CES1,[2],No significant inhibition
same,Selectivity (IC50 CES1)/(IC50 CES2),[3],>180
same,pIC50,"[3]; 4 NPA substrate, 15 min at 25° C., pH 7.4",5.78
"CCc1c2c(nc3ccc(OC(=O)N4CCC(N5CCCCC5)CC4)cc13)-c1cc3c(c(=O)n1C2)COC(=O)[C@]3(O)CC [CPT-11, irinotecan]",day on which diarrhea occurred,[1],9 days
same,Percentage of mice having diarrhea,[1]; day 9 after treatment,50%
same,Percentage of mice having diarrhea,[1]; day 10 after treatment,50%
same,Percentage of mice having diarrhea,[1]; day 11 after treatment,75%
same,Percentage of mice having diarrhea,[1]; day 12 after treatment,75%
same,Percentage of mice having diarrhea,[1]; day 13 after treatment,75%
same,Percentage of mice having diarrhea,[1]; day 14 after treatment,75%
same,Percentage of mice having diarrhea,[4]; day 8 after treatment,10%
same,Percentage of mice having diarrhea,[4]; day 9 after treatment,20%
same,Percentage of mice having diarrhea,[4]; day 10 after treatment,40%
same,Percentage of mice having diarrhea,[4]; day 11 after treatment,70%
same,Percentage of mice having diarrhea,[4]; day 12 after treatment,70%
COc1ccc([C@@H]2CC(=O)c3c(O)cc(O)cc3O2)cc1O [hesperetin],"anti-tumor efficacy, as evaluated by tumor growth, versus CPT-11 only group",[1],No significant changes
same,losses in body weight induced by CPT-11 treatment,[1],reversed
same,survival rates as compared to CPT-11 alone,[1],improved
same,day on which diarrhea occurred,[1],12 days
same,Percentage of mice having diarrhea,[1]; day 12 after treatment,25%
same,pIC50,[2],< 3.52
same,inhibition of CES1,[2],No significant inhibition
same,number of animals exhibiting diarrhea as compared to CPT-11 alone,[4]; [6],reduced
same,onset of diarrhea as compared to CPT-11 alone,[4]; [6],significantly delayed
same,survival of animals as compared to CPT-11 alone,"[4]; co-administering hesperetin and CPT-11, both hesperetin doses, FIG. 2C",improved
same,loss in body weight induced by CPT-11 administration,"[4]; co-administration of hesperetin at both doses tested, FIG. 2B",reduced
same,anti-tumor efficacy of CPT-11 on co-administration,[4]; either dose of hesperetin (20 mg/kg or 100 mg/kg),improved
same,day of onset of diarrhea,[4]; hesperetin 20 mg/kg with CPT-11,10 days
same,day of onset of diarrhea,[4]; hesperetin 100 mg/kg with CPT-11,12 days
O=C1C[C@@H](c2ccc(O)cc2)Oc2cc(O)cc(O)c21 [naringenin],"anti-tumor efficacy, as evaluated by tumor growth, versus CPT-11 only group",[1],No significant changes
same,pIC50,[2]; [5],3.80
